The conditions of data set [1]: cited from earlier work.
A further data set relates to 3D7 P. falciparum. The experiment in a line: Parasite-killing profile (parasite viability after 10x IC50). Format: cell-based, Plasmodium falciparum. The settings on record: treatment for 24 h with 10× IC50. As to the method:
After the treatment, the drug was removed and the culture diluted 1/3 and re-established in RBCs labeled with carboxyfluorescein diacetate succinimidyl ester (CFDA-SE, Life Technologies) to a 2% hematocrit in order to evaluate the reinfection capacity of the treated parasites. CFDA-SE-labelled erythrocytes were prepared by incubating 1% hematocrit in RPMI containing 10 μM CFDA-SE at 37 °C for 30 min, after which they were washed and maintained at 50% hematocrit at 4 °C for up to 24 h before use. Parasites were grown for 48 h, a complete replication cycle, in standard culturing conditions (5% O2, 5% CO2, and 90% N2 at 37 °C). After this incubation time, parasitemia was assessed by two-color flow cytometry (Attune NxT Flow Cytometer, Thermo Fisher Scientific, Inc.) using Hoechst 33342 to stain nuclei. Hoechst 33342 fluorescence signal was detected by exciting samples at 405 nm and collecting the emission with a 440/50-nm bandpass filter (VL1), whereas CFDA-SE was excited at 488 nm and detected with a 530/30 nm filter. Samples were analyzed using the Attune NxT software package 3.2.1, and parasite viability was plotted as the percentage of infected CFDA-SE-stained erythrocytes, using as reference untreated samples of the initial inoculum after 48 h of incubation with labeled erythrocytes.

On to `CCN(CC)c1ccc(/C=C/c2cc[n+](CCCCCCCCCC[n+]3ccc(/C=C/c4ccc(N(CC)CC)cc4)c(C)c3)cc2C)cc1` [YAT2150], for which the “Microsomal stability (% remaining after 1 h)” value in data set [1] (human microsomes, 37 °C) is on record as 54.6 ^7%. In addition, in data set [1] (human, microsomes), the “Microsomal stability T1/2” value is on record as 80.5 ^7 min. The compound also showed a parasite survival in the data set on 3D7 P. falciparum of 8.5%.
